Assay results: PubChem BioAssay AID330 (DTP/NCI, 2004)
Where “and” joins values, the source holds several entries; their conditions need not be identical. Equal entries are not always repeated. Inconclusive results and toxic doses are left out.

System: P388 leukemia ip, CD2F1 mice, survival T/C
Test: NCI In Vivo Anticancer Drug Screen. Data for tumor model P388 Leukemia (intraperitoneal) in CD2F1 (CDF1) mice
Conditions: endpoint: median survival time, higher = longer survival
In short: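 Mice carrying the transplanted tumor received test compound or vehicle. Survival was recorded in each group, and the value is the treated-group measurement divided by that of the vehicle-treated control group.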

[1] = dose: 200.0 mg/kg/injection, schedule: Q01DX005 (ip), vehicle: saline
[2] = dose: 400.0 mg/kg/injection, schedule: Q01DX009 (ip), vehicle: saline with Tween-80
[3] = dose: 100.0 mg/kg/injection, schedule: Q01DX009 (ip), vehicle: saline with Tween-80
[4] = dose: 100.0 mg/kg/injection, schedule: Q01DX009 (ip), vehicle: Klucel (hydroxypropylcellulose) (HPC)
[5] = dose: 200.0 mg/kg/injection, schedule: Q01DX009 (ip), vehicle: Klucel (hydroxypropylcellulose) (HPC)
[6] = dose: 100.0 mg/kg/injection, schedule: Q01DX001 (ip), vehicle: saline with Tween-80
[7] = dose: 200.0 mg/kg/injection, schedule: Q01DX001 (ip), vehicle: saline with Tween-80
[8] = dose: 50.0 mg/kg/injection, schedule: Q01DX005 (ip), vehicle: saline with Tween-80
[9] = dose: 100.0 mg/kg/injection, schedule: Q01DX005 (ip), vehicle: saline with Tween-80
[10] = dose: 200.0 mg/kg/injection, schedule: Q01DX005 (ip), vehicle: saline with Tween-80

In the case of `Nc1ccn(C2OC(CO)C(O)C2O)c(=O)n1` (stereo not drawn), the T/C (dose: 2.0 mg/kg/injection, schedule: Q01DX009 (ip), vehicle: saline) is reported as 160 % of control, the T/C (dose: 10.0 mg/kg/injection, schedule: Q01DX005 (ip), vehicle: saline) is reported as 160 % of control and the T/C (dose: 60.0 mg/kg/injection, schedule: Q01DX005 (ip), vehicle: saline) is reported as 190 % of control. The T/C (dose: 100.0 mg/kg/injection, schedule: Q04DX002 (ip), vehicle: saline) was 120 % of control, the T/C (dose: 128.0 mg/kg/injection, schedule: Q01DX009 (ip), vehicle: saline) was 170 % of control and 250 % of control and the T/C [1] was 200 % of control. The T/C (dose: 200.0 mg/kg/injection, schedule: Q01DX009 (ip), vehicle: saline) was 100 % of control, the T/C (dose: 200.0 mg/kg/injection, schedule: Q04DX003 (ip), vehicle: saline) was 100 % of control and the T/C (dose: 324.0 mg/kg/injection, schedule: Q04DX003 (ip), vehicle: saline) was 190 % of control. The T/C [2] was 100 % of control, the T/C (dose: 400.0 mg/kg/injection, schedule: Q01DX009 (ip), vehicle: saline) was 99 % of control and 110 % of control and the T/C (dose: 500.0 mg/kg/injection, schedule: Q04DX003 (ip), vehicle: saline) was 200 % of control. For the same molecule, the T/C (dose: 512.0 mg/kg/injection, schedule: Q01DX009 (ip), vehicle: saline) was 90 % of control, the T/C (dose: 800.0 mg/kg/injection, schedule: Q01DX009 (ip), vehicle: saline with Tween-80) was 99 % of control and the T/C (dose: 800.0 mg/kg/injection, schedule: Q01DX009 (ip), vehicle: saline) was 110 % of control and 91 % of control. The T/C (dose: 900.0 mg/kg/injection, schedule: Q04DX003 (ip), vehicle: saline) was 210 % of control, the T/C (dose: 1200.0 mg/kg/injection, schedule: Q01DX009 (ip), vehicle: saline with Tween-80) was 100 % of control and the T/C (dose: 1600.0 mg/kg/injection, schedule: Q01DX009 (ip), vehicle: saline) was 91 % of control. The T/C (dose: 1600.0 mg/kg/injection, schedule: Q04DX002 (ip), vehicle: saline) was 120 % of control and the T/C (dose: 2400.0 mg/kg/injection, schedule: Q01DX009 (ip), vehicle: saline with Tween-80) was 90 % of control.

With `CN1c2ccccc2SC1(C)CCC(=O)O` (stereo not drawn) the T/C (dose: 60.0 mg/kg/injection, schedule: Q01DX005 (ip), vehicle: Klucel (hydroxypropylcellulose) (HPC)) was 105 % of control and the T/C (dose: 120.0 mg/kg/injection, schedule: Q01DX005 (ip), vehicle: Klucel (hydroxypropylcellulose) (HPC)) was 104 % of control.

With `COc1cccc(CCNC(=O)CCN2C(=O)CCC2=O)c1` the T/C [3] was 105 % of control, the T/C (dose: 200.0 mg/kg/injection, schedule: Q01DX009 (ip), vehicle: saline with Tween-80) was 100 % of control and the T/C [2] was 110 % of control.

For `C(=C\c1ccccc1)/C[P+](c1ccccc1)(c1ccccc1)c1ccccc1`, the T/C (dose: 0.62 mg/kg/injection, schedule: Q01DX009 (ip), vehicle: saline) was 90 % of control, the T/C (dose: 0.63 mg/kg/injection, schedule: Q01DX009 (ip), vehicle: saline with Tween-80) was 100 % of control and the T/C (dose: 1.25 mg/kg/injection, schedule: Q01DX009 (ip), vehicle: saline with Tween-80) was 122 % of control. For the same molecule, the T/C (dose: 1.25 mg/kg/injection, schedule: Q01DX009 (ip), vehicle: saline) was 93 % of control, the T/C (dose: 2.5 mg/kg/injection, schedule: Q01DX009 (ip), vehicle: saline with Tween-80) was 109 % of control and the T/C (dose: 2.5 mg/kg/injection, schedule: Q01DX009 (ip), vehicle: saline) was 90 % of control. For the same molecule, the T/C (dose: 5.0 mg/kg/injection, schedule: Q01DX009 (ip), vehicle: saline) was 98 % of control.

In the case of `COc1cc(C[C@@H]2COC(=O)[C@]2(O)Cc2ccc(O)c(OC)c2)ccc1O`, the T/C (dose: 1.25 mg/kg/injection, schedule: Q01DX009 (ip), vehicle: alcohol) is reported as 100 % of control, the T/C (dose: 2.5 mg/kg/injection, schedule: Q01DX009 (ip), vehicle: alcohol) is reported as 113 % of control and the T/C (dose: 5.0 mg/kg/injection, schedule: Q01DX009 (ip), vehicle: alcohol) is reported as 104 % of control. The T/C (dose: 8.0 mg/kg/injection, schedule: Q01DX009 (ip), vehicle: saline + alcohol) was 124 % of control and the T/C (dose: 16.0 mg/kg/injection, schedule: Q01DX009 (ip), vehicle: saline + alcohol) was 154 % of control.

For `CNC(=O)N1CCOC1c1ccc(NC(=O)OC)cc1` (stereo not drawn), the T/C (dose: 60.0 mg/kg/injection, schedule: Q01DX005 (ip), vehicle: saline with Tween-80) was 96 % of control, the T/C (dose: 120.0 mg/kg/injection, schedule: Q01DX005 (ip), vehicle: saline with Tween-80) was 90 % of control and the T/C (dose: 240.0 mg/kg/injection, schedule: Q01DX005 (ip), vehicle: saline with Tween-80) was 95 % of control.

In the case of `c1cc(C2=NCCN2)ccc1Nc1ccc(-c2cc3ccc(C4=NCCN4)cc3[nH]2)cc1`, the T/C (dose: 3.75 mg/kg/injection, schedule: Q01DX005 (ip), vehicle: Klucel (hydroxypropylcellulose) (HPC)) is reported as 150 % of control and 165 % of control and the T/C (dose: 7.5 mg/kg/injection, schedule: Q01DX005 (ip), vehicle: Klucel (hydroxypropylcellulose) (HPC)) is reported as 154 % of control and 177 % of control.

For `Cc1ccc(S(=O)(=O)N2CCC(N)=N2)cc1`, the T/C (dose: 50.0 mg/kg/injection, schedule: Q01DX005 (ip), vehicle: Klucel (hydroxypropylcellulose) (HPC)) was 93 % of control, the T/C (dose: 100.0 mg/kg/injection, schedule: Q01DX005 (ip), vehicle: Klucel (hydroxypropylcellulose) (HPC)) was 98 % of control and the T/C (dose: 200.0 mg/kg/injection, schedule: Q01DX005 (ip), vehicle: Klucel (hydroxypropylcellulose) (HPC)) was 90 % of control.

For `CC(=O)OCC12CCC(C)=CC1OC1C(N3CCOCC3)C(O)C2(C)C12CO2` (stereo not drawn), the T/C (dose: 0.62 mg/kg/injection, schedule: Q04DX002 (ip), vehicle: water) was 123 % of control, the T/C (dose: 1.25 mg/kg/injection, schedule: Q04DX002 (ip), vehicle: water) was 123 % of control and the T/C (dose: 2.5 mg/kg/injection, schedule: Q04DX002 (ip), vehicle: water) was 123 % of control.

In the case of `C=CCN(CC=C)P1(=O)NCCCO1` (stereo not drawn), the T/C (dose: 50.0 mg/kg/injection, schedule: Q01DX005 (ip), vehicle: saline) is reported as 103 % of control, the T/C (dose: 100.0 mg/kg/injection, schedule: Q01DX005 (ip), vehicle: saline) is reported as 102 % of control and the T/C [1] is reported as 105 % of control.

In the case of `O=P(c1ccccc1)(c1ccccc1)C(O)c1ccc(F)cc1` (stereo not drawn), the T/C (dose: 50.0 mg/kg/injection, schedule: Q01DX009 (ip), vehicle: Klucel (hydroxypropylcellulose) (HPC)) is reported as 89 % of control, the T/C [4] is reported as 100 % of control and the T/C [5] is reported as 93 % of control.

In the case of `Cc1ccnc(-n2c(N)cc(=O)[nH]c2=S)c1`, the T/C (dose: 50.0 mg/kg/injection, schedule: Q01DX001 (ip), vehicle: saline with Tween-80) is reported as 86 % of control, the T/C [6] is reported as 118 % of control and the T/C [7] is reported as 100 % of control.

For `COc1ccccc1Nc1nc(-c2ccc(O)c(O)c2)cs1`, the T/C [8] was 97 % of control, the T/C [9] was 89 % of control and the T/C [10] was 103 % of control.

`C=C1C(=O)OC2(C)CCC1CC1OC1(C)CC/C=C(\C)CCC2OC(C)=O` (stereo not drawn) was tested, and the T/C (dose: 37.5 mg/kg/injection, schedule: Q01DX001 (ip), vehicle: Klucel (hydroxypropylcellulose) (HPC)) was 94 % of control, the T/C (dose: 75.0 mg/kg/injection, schedule: Q01DX001 (ip), vehicle: Klucel (hydroxypropylcellulose) (HPC)) was 92 % of control and the T/C (dose: 150.0 mg/kg/injection, schedule: Q01DX001 (ip), vehicle: Klucel (hydroxypropylcellulose) (HPC)) was 91 % of control. For the same molecule, the T/C (dose: 300.0 mg/kg/injection, schedule: Q01DX001 (ip), vehicle: Klucel (hydroxypropylcellulose) (HPC)) was 88 % of control.

In the case of `CC(=O)C(=Cc1c(N(C)c2ccccc2)nn2ccccc12)C(C)=O`, the T/C [6] is reported as 100 % of control, the T/C [7] is reported as 100 % of control and the T/C (dose: 400.0 mg/kg/injection, schedule: Q01DX001 (ip), vehicle: saline with Tween-80) is reported as 100 % of control.

For `COC1=CC(=N/Cl)/C=CC/1=N/Cl`, the T/C (dose: 6.25 mg/kg/injection, schedule: Q01DX005 (ip), vehicle: saline) was 115 % of control, the T/C (dose: 12.5 mg/kg/injection, schedule: Q01DX005 (ip), vehicle: saline) was 110 % of control and the T/C (dose: 25.0 mg/kg/injection, schedule: Q01DX005 (ip), vehicle: saline) was 115 % of control.

For `CC[N+](C)(C)c1ccc(/C=C(/C#N)C(=O)OC)cc1`, the T/C (dose: 50.0 mg/kg/injection, schedule: Q01DX009 (ip), vehicle: saline with Tween-80) was 100 % of control and the T/C [3] was 103 % of control.

With `CSC1=N[N+]2=C(C)c3ccccc3O[B-]2(c2ccccc2)S1` (stereo not drawn) the T/C [8] was 96 % of control, the T/C [9] was 92 % of control and the T/C [10] was 87 % of control.

With `Cc1ccc(S(=O)(=O)OC[C@@H]2CCCC[C@H]2COS(=O)(=O)c2ccc(C)cc2)cc1` the T/C [4] was 98 % of control, the T/C [5] was 98 % of control and the T/C (dose: 400.0 mg/kg/injection, schedule: Q01DX009 (ip), vehicle: Klucel (hydroxypropylcellulose) (HPC)) was 98 % of control.
